Measurements taken from patent US20200277571A1, “METHOD FOR AMPLIFYING CONE PHOTORECEPTORS OR ROD PHOTORECEPTORS USING DORSALIZATION SIGNAL TRANSMITTER OR VENTRALIZATION SIGNAL TRANSMITTER” (RIKEN, priority 2017, published 2020).

Tested on: S-opsin, M-opsin, L-opsin
Test: Quantitative PCR of S-opsin, M-opsin, L-opsin after maturation culture in serum-free medium
Format: cell-based, human
Conditions: T3 added (0-8 nM) in serum-free DMEM/F12 after about day 190, not less than 30 days
Experimental: By a method similar to the methods described in Example 1 and Example 3, a cell aggregate containing a retinal tissue in a differentiation stage matured to the level that Muller cell was observed was prepared and culture was performed, in the serum-containing medium used, up to about day 190 to give a retinal tissue in a differentiation stage matured to the level that Muller cell was observed. Thereafter, by a method similar to the methods described in Example 11 and 12, further maturation was performed. That is, 0-1.35 nM BMP4 and 0-8 nM T3 were added to a medium obtained by adding 1% N2 supplement and 100 μM taurine but not adding 10% fetal calf serum to DMEM/F12 medium containing glutamic acid as a component, and culture was performed for not less than 30 days from the start of culture for further maturation. A cell aggregate containing a retinal tissue was recovered, quantitatively PCR was performed according to a conventional method, and the expression levels of S-opsin, M-opsin, L-opsin were confirmed. As a result, irrespective of the presence or absence of BMP4, the expression of S-opsin was promoted when T3 was absent.

## N[C@@H](Cc1cc(I)c(Oc2ccc(O)c(I)c2)c(I)c1)C(=O)O [T3, triodo-I-thyronine]
  expression of S-opsin: suppressed
